The record followed here is patent US20050203059A1, “Methods and compositions for treatment of ischemia” (priority 2002, published 2005).

One data set has as its system GSK3. Kind of data set: Cell-based glycogen synthase assay for GSK3 inhibitory activity (CHO-HIRC cells). Particulars: read-out: EC50 (glycogen synthase activity stimulated to 50% of the maximal level), 20 minutes incubation. Here is the method:
Likewise, the ability of GSK3 inhibitor compounds to potentiate insulin signaling by activating glycogen synthase can be readily ascertained using a cell-based glycogen synthase activity assay. This assay employs cells that respond to insulin stimulation by increasing glycogen synthase activity, such as the CHO-HIRC cell line, which overexpresses wild-type insulin receptor (˜100,000 binding sites/cell). […] The assay can be carried out by incubating serum-starved CHO-HIRC cells in the presence of various concentrations of compounds of the present invention in the medium, followed by cell lysis at the end of the incubation period. […] The concentration of candidate GSK3 inhibitor that increased glycogen synthase activity to half of its maximal level (i.e., the EC50) can be calculated by fitting a four parameter sigmoidal curve using routine curve fitting methods that are well known to those having ordinary skill in the art.
CHO-HIRC cells are maintained in 10 cm tissue culture plates in Ham's F12 medium/10% dialyzed fetal bovine serum. Cells from a confluent 10 cm plate are harvested and divided into the 6 wells of a 6-well tissue culture plate to a final volume of 2 ml of medium. The cells are left to grow at 37° C. for 24 hours. The cells are then washed three times in Ham's F12 medium containing no fetal bovine serum, and finally the cells are left for a further 24 hours at 37° C. in 2 ml of the serum-free medium.
At the end of this time, 20 μl of compound dissolved in DMSO is added to each well and incubated at 37° C. After 20 minutes the medium is removed and the cells are washed once in PBS at room temperature and then rapidly frozen in the plates in liquid nitrogen. […] Cells are scraped from the plates and frozen in Eppendorf tubes on dry ice. Lysates are then thawed and refrozen on dry ice.
After rethawing, lysates are spun at 14,000 g for 15 minutes. The supernatants are then removed and stored on ice. […] Reactions are incubated at 30° C. for 30 minutes and then spotted onto a 2 cm square 31ET chromatograph paper (Whatman).
Filters are added to 5 ml of liquid scintillant and counted in a liquid scintillation counter. The percentage of the total glycogen synthase that is active in any lysate is expressed as 100× (cpm minus glucose-6-phosphate)/(cpm plus glucose-6-phosphate). Such values are determined in duplicate for 5 different concentrations of compound and for DMSO alone, and the values are then plotted against the logarithm of the concentration. The concentration of compound which stimulates glycogen synthase activity to 50% of the maximal level is determined by fitting a sigmoidal curve to the plotted data. The maximal level is defined as that level to which glycogen synthase activity tends asymtotically as the concentration of test compound increases substantially beyond the EC50.

A further data set has as its system rat hippocampi cells. Nature of the data set: GSK3 inhibitor protection of rat hippocampi cells from glutamate induced damage (Trypan Blue count). Type of data set: cell-based. Further details: Cells Surviving (%) Without Glutamate (control): concentration or dose not given beside the values. To be noted: rat hippocampal neurons, average of 1 to 4 replications; for Cells Surviving (%) With Glutamate: 200 μM glutamic acid for 5 minutes, counted 20 to 24 hours later; for Cells Surviving (%) Without Glutamate (control): not exposed to glutamic acid. As to the method: Hippocampi were dissected from embryonic day 18-19 rats. The tissue was collected in Hibernate™ media (Gibco BRL) and minced into 1 mm pieces. The tissue was dissociated using the Papain Dissociation System (Worthington Biochemical Corporation). Following isolation the cells were suspended in serum-free media composed of Neurobasal™ (Gibco BRL), 2% B27 supplement (Gibco BRL), L-glutamine and antibiotics. Cells were plated in 12 well plates tissue culture dishes coated with poly-L-lysine at a concentration of 7.5×10^4 cells per well. Following 10-14 days at 37° C. in 5% CO2, the GSK3 inhibitor compounds set forth below were added. Four to eight hours following compound addition, the conditioned media was removed from the cells and the cultures were stored at 37° C. […] The cultures were then either exposed for 5-minutes at room temperature to 200 μM glutamic acid in the same HBSS, or not exposed to glutamic acid as a control. Following exposure, the cultures were rinsed three times with the buffer and then returned to their original conditioned media containing the GSK3 inhibitor compounds. Twenty to 24 hours following glutamic acid exposure, the cultures were rinsed in HBSS and exposed for 10 minutes to Trypan Blue. This dye is taken up by dead cells. The cultures were rinsed then fixed for 30 minutes in 4% paraformaldehyde. The number of live and dead (blue) large neurons are counted (at least 200 cells from each well) by phase contrast microscopy and photographed, and the percentage of surviving cells was determined. […] The results are shown in the following Table 2 as the average of 1 to 4 replications: […]

A short description of data set [1]: Blood brain barrier penetration / plasma drug levels after intravenous dosing in CD rats. To be noted: 10 mg/kg intravenously. It counts as in vivo, rat. As to the method: GSK3 inhibitor blood brain barrier penetration may generally be measured by administering a GSK3 inhibitor compound formulated in 15% captisol/20 mM sodium citrate to a final dose of 10 mg/kg intravenously through a jugular catheter into 250 g CD rats. At 150 minutes post administration brains from the rats were isolated and fast frozen. GSK3 inhibitor plasma levels in the isolated material were established using standard techniques.

Usually EC50 stands for the midpoint of the concentration-response curve. What is called AUC is concentration integrated over time. As usually defined, the Cmax is the maximum level reached in the sampled fluid or tissue. As usually defined, the Tmax is the time from dosing to the highest level. A word on the half-life: it is the time needed for the level to fall by half in the phase considered.

As for `CN(CCNc1ccc([N+](=O)[O-])c(N)n1)c1ncc(-c2ncc[nH]2)c(-c2ccc(Cl)cc2Cl)n1` [Q], in the data set with GSK3, the EC50 was 0.017 µM. In the data set with rat hippocampi cells, the “Cells Surviving (%) With Glutamate” value was found to be 67% and the “Cells Surviving (%) Without Glutamate (control)” value came to 95%.

As for `FC(F)(F)c1ccc(NCCNc2ncc(-c3ncc[nH]3)c(-c3ccc(Cl)cc3Cl)n2)nc1` [V], in the data set with GSK3, the EC50 was found to be 1.24 µM. In the data set with rat hippocampi cells, the “Cells Surviving (%) With Glutamate” value is on record as 49% and the “Cells Surviving (%) Without Glutamate (control)” value turned out to be 94%.

For the molecule “IGF1: IGF1, used as a control in the rat hippocampi cell survival test”, in the data set on rat hippocampi cells, the “Cells Surviving (%) With Glutamate” value is recorded as 51% and the “Cells Surviving (%) Without Glutamate (control)” value turned out to be 93%.

As for `Nc1nc(NCCNc2ncc(-c3ncc[nH]3)c(-c3ccc(F)cc3Cl)n2)ccc1[N+](=O)[O-]` [X], the 50% effective concentration (EC50) in the data set with GSK3 came to 0.424 µM. Also, in the data set on rat hippocampi cells, the “Cells Surviving (%) With Glutamate” value amounted to 50% and the “Cells Surviving (%) Without Glutamate (control)” value is on record as 93%.

Take `Cc1ccc(-c2nc(NCCNc3ccc([N+](=O)[O-])c(N)n3)ncc2-c2ncc[nH]2)c(Br)c1` [G]: the EC50 in the data set with GSK3 was found to be 0.053 µM. Also, in the data set on rat hippocampi cells, the “Cells Surviving (%) With Glutamate” value is listed as 65% and the “Cells Surviving (%) Without Glutamate (control)” value turned out to be 94%. Besides, the CL in data set [1] was 52 [ml/min]/kg. The “Brain (at end of study) drug level” value in data set [1] (brains isolated at 150 minutes post administration) was “<LOQ”. Besides, in data set [1] (rat, plasma, iv), the AUC was 3180 ng·h/mL, the highest level (Cmax) was 4600 ng/mL, the Tmax is about 0 h and the half-life came out at 31 min. For the same molecule, the Vd in data set [1] (rat, plasma, iv, read-out: Vss) worked out at 2.3 L/kg. This molecule showed a concentration at 0 min in data set [1] (rat, plasma, iv, time 0 min) of under 20 ng/mL. Also, the concentration at 7 min in data set [1] (rat, plasma, iv, time 7 min) stood at 4050 ng/mL. In data set [1] (rat, plasma, iv, time 20 min), the concentration at 20 min was determined as 3200 ng/mL. The same molecule returned a concentration at 40 min in data set [1] (rat, plasma, iv, time 40 min) of 1330 ng/mL. The molecule also yielded a concentration at 70 min in data set [1] (rat, plasma, iv, time 70 min) of 796 ng/mL. This molecule also had a concentration at 100 min in data set [1] (rat, plasma, iv, time 100 min) of 414 ng/mL. In data set [1] (rat, plasma, iv, time 150 min), the concentration at 150 min was found to be 113 ng/mL.

For the molecule `Nc1nc(NCCNc2ncc(N3C(=O)CCC3=O)c(-c3ccc(Cl)cc3Cl)n2)ccc1[N+](=O)[O-]` [M], in the data set with GSK3, the EC50 was 0.085 µM. In the data set on rat hippocampi cells, the “Cells Surviving (%) With Glutamate” value came to 61% and the “Cells Surviving (%) Without Glutamate (control)” value is recorded as 87%.

As for `N#Cc1ccc(-c2nc(NCCNc3ccc([N+](=O)[O-])cn3)ncc2-n2ccnc2)cc1` [T], the EC50 in the data set on GSK3 was determined as 1.28 µM. In the data set on rat hippocampi cells, the “Cells Surviving (%) With Glutamate” value was determined as 50% and the “Cells Surviving (%) Without Glutamate (control)” value came out at 95%.

With `CN1CCN(c2cnc(NCCNc3ccc([N+](=O)[O-])c(N)n3)nc2-c2ccc(Cl)cc2Cl)CC1` [N], the EC50 with GSK3 came out at 0.0534 µM. Also, in the data set with rat hippocampi cells, the “Cells Surviving (%) With Glutamate” value was found to be 67% and the “Cells Surviving (%) Without Glutamate (control)” value worked out at 91%.

Consider `Nc1nc(NCCNc2ncc(-c3ncc[nH]3)c(-c3ccc(F)cc3Br)n2)ccc1[N+](=O)[O-]` [Compound S], for which, in the data set with GSK3, the EC50 was found to be 0.22 µM. In the data set on rat hippocampi cells, the “Cells Surviving (%) With Glutamate” value was 50% and the “Cells Surviving (%) Without Glutamate (control)” value came out at 95%.

For `Nc1nc(NCCNc2ncc(-n3cc(Cl)ccc3=O)c(-c3ccc(Cl)cc3Cl)n2)ccc1[N+](=O)[O-]` [O], the EC50 in the data set with GSK3 is 0.133 µM. Moreover, in the data set with rat hippocampi cells, the “Cells Surviving (%) With Glutamate” value was 61% and the “Cells Surviving (%) Without Glutamate (control)” value is on record as 94%.

For `Nc1nc(NCCNc2ncc(NC(=O)NCCN3CCOCC3)c(-c3ccc(Cl)cc3Cl)n2)ccc1[N+](=O)[O-]` [D], the EC50 in the data set with GSK3 stood at 3 µM. Moreover, in the data set with rat hippocampi cells, the “Cells Surviving (%) With Glutamate” value came out at 60% and the “Cells Surviving (%) Without Glutamate (control)” value is 96%.

As to `Nc1nc(NCCNc2ncc(-n3cccn3)c(-c3ccc(Cl)cc3Cl)n2)ccc1[N+](=O)[O-]` [W], in the data set on GSK3, the EC50 came out at 0.0998 µM. Also, in the data set on rat hippocampi cells, the “Cells Surviving (%) With Glutamate” value is 61% and the “Cells Surviving (%) Without Glutamate (control)” value was 94%.

With `Nc1nc(NCCNc2ncc(-c3ncc[nH]3)c(-c3ccc(Cl)cc3Cl)n2)ccc1[N+](=O)[O-]` [L], the EC50 in the data set with GSK3 came to 0.257 µM. Further, in the data set on rat hippocampi cells, the “Cells Surviving (%) With Glutamate” value stood at 59% and the “Cells Surviving (%) Without Glutamate (control)” value was 90%.

Take `Nc1nc(NCCNc2ncc(-n3ccnc3)c(-c3ccc(Cl)cc3Cl)n2)ccc1[N+](=O)[O-]` [Y]: the EC50 in the data set with GSK3 came to 0.075 µM. Moreover, in the data set on rat hippocampi cells, the “Cells Surviving (%) With Glutamate” value is recorded as 61% and the “Cells Surviving (%) Without Glutamate (control)” value is reported as 94%.

Consider `Nc1nc(NCCNc2ncc(N3CCOCC3)c(-c3ccc(Cl)cc3Cl)n2)ccc1[N+](=O)[O-]` [U], for which the EC50 in the data set on GSK3 was determined as 0.0735 µM. Further, in the data set on rat hippocampi cells, the “Cells Surviving (%) With Glutamate” value was 62% and the “Cells Surviving (%) Without Glutamate (control)” value turned out to be 93%.

On to `Nc1nc(NCCNc2ncc(CO)c(-c3ccc(Cl)cc3Cl)n2)ccc1[N+](=O)[O-]` [K], for which the EC50 in the data set with GSK3 amounted to 0.147 µM. Moreover, in the data set on rat hippocampi cells, the “Cells Surviving (%) With Glutamate” value amounted to 73% and the “Cells Surviving (%) Without Glutamate (control)” value was 86%.

Regarding `COCCNC(=O)Cn1c(=O)n(C2CCN(C(=O)N3CCc4ccccc4C3)CC2)c2ccccc21` [E], in the data set on rat hippocampi cells, the “Cells Surviving (%) With Glutamate” value stood at 73% and the “Cells Surviving (%) Without Glutamate (control)” value is given as 88%.

With `O=[N+]([O-])c1ccc(NCCNc2ccc(-c3ncc[nH]3)c(-c3ccc(Cl)cc3Cl)n2)nc1` [H], the EC50 with GSK3 is 0.121 µM. Besides, in the data set on rat hippocampi cells, the “Cells Surviving (%) With Glutamate” value is 67% and the “Cells Surviving (%) Without Glutamate (control)” value was found to be 94%.

`CNCC(=O)Nc1cnc(NCCNc2ccc([N+](=O)[O-])c(N)n2)nc1-c1ccc(Cl)cc1Cl` [P]: the EC50 with GSK3 was found to be 0.701 µM. Moreover, in the data set with rat hippocampi cells, the “Cells Surviving (%) With Glutamate” value amounted to 55% and the “Cells Surviving (%) Without Glutamate (control)” value came out at 91%.

As for `FC(F)(F)c1ccc(NCCNc2ccc(-c3ncc[nH]3)c(-c3ccc(Cl)cc3Cl)n2)nc1` [F], in the data set with rat hippocampi cells, the “Cells Surviving (%) With Glutamate” value stood at 51% and the “Cells Surviving (%) Without Glutamate (control)” value turned out to be 96%.

As to `O=[N+]([O-])c1ccc(NCCNc2ncc(-c3ncc[nH]3)c(-c3ccc(Cl)cc3Cl)n2)nc1` [J], the EC50 with GSK3 is 0.375 µM. Moreover, in the data set on rat hippocampi cells, the “Cells Surviving (%) With Glutamate” value stood at 57% and the “Cells Surviving (%) Without Glutamate (control)” value is listed as 95%.

`Nc1nc(NCCNc2ncc(-n3ccccc3=O)c(-c3ccc(Cl)cc3Cl)n2)ccc1[N+](=O)[O-]` [R]: the EC50 in the data set on GSK3 came to 0.014 µM. For the same molecule, in the data set with rat hippocampi cells, the “Cells Surviving (%) With Glutamate” value is given as 61% and the “Cells Surviving (%) Without Glutamate (control)” value turned out to be 92%.
